Where “and” joins values, the source holds several entries; their conditions need not be identical. Identical values can stand only once. Inconclusive results and toxic doses are left out.
System: P388 leukemia ip, CD2F1 mice, survival T/C
Assay: NCI In Vivo Anticancer Drug Screen. Data for tumor model P388 Leukemia (intraperitoneal) in CD2F1 (CDF1) mice
Settings: endpoint: median survival time, higher = longer survival
How it was run: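 Mice carrying the transplanted tumor received test compound or vehicle. Survival was recorded in each group, and the value is the treated-group measurement divided by that of the vehicle-treated control group.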

[1] = dose: 12.5 mg/kg/injection, schedule: Q01DX009 (ip), vehicle: saline with Tween-80
[2] = dose: 25.0 mg/kg/injection, schedule: Q01DX009 (ip), vehicle: saline with Tween-80
[3] = dose: 50.0 mg/kg/injection, schedule: Q01DX009 (ip), vehicle: saline with Tween-80
[4] = dose: 100.0 mg/kg/injection, schedule: Q01DX009 (ip), vehicle: saline with Tween-80
[5] = dose: 200.0 mg/kg/injection, schedule: Q01DX009 (ip), vehicle: saline with Tween-80
[6] = dose: 6.25 mg/kg/injection, schedule: Q01DX009 (ip), vehicle: saline with Tween-80
[7] = dose: 12.5 mg/kg/injection, schedule: Q01DX009 (ip), vehicle: saline
[8] = dose: 50.0 mg/kg/injection, schedule: Q01DX009 (ip), vehicle: Klucel (hydroxypropylcellulose) (HPC)
[9] = dose: 100.0 mg/kg/injection, schedule: Q01DX009 (ip), vehicle: Klucel (hydroxypropylcellulose) (HPC)
[10] = dose: 200.0 mg/kg/injection, schedule: Q01DX009 (ip), vehicle: Klucel (hydroxypropylcellulose) (HPC)
[11] = dose: 50.0 mg/kg/injection, schedule: Q01DX009 (ip), vehicle: saline
[12] = dose: 50.0 mg/kg/injection, schedule: Q01DX005 (ip), vehicle: Klucel (hydroxypropylcellulose) (HPC)
[13] = dose: 60.0 mg/kg/injection, schedule: Q01DX005 (ip), vehicle: saline
[14] = dose: 120.0 mg/kg/injection, schedule: Q01DX005 (ip), vehicle: saline
[15] = dose: 240.0 mg/kg/injection, schedule: Q01DX005 (ip), vehicle: saline

O=C1OP2(c3ccccc3)(OC(=O)c3ccccc32)c2ccccc21
T/C [1]: 98 % of control and 94 % of control
T/C [2]: 99 % of control and 92 % of control
T/C [3]: 90 % of control and 95 % of control
T/C [4]: 95 % of control
T/C [5]: 88 % of control

O=C1C(CC=C(Cl)Cl)=C(OC2OC(CO)C(O)C(O)C2O)C(=O)c2ccccc21 (configuration not stated)
T/C (dose: 3.12 mg/kg/injection, schedule: Q01DX009 (ip), vehicle: saline with Tween-80): 103 % of control
T/C [6]: 109 % of control
T/C [1]: 111 % of control

COc1ccc2[nH]c(C)cc2c1CN
T/C (dose: 3.12 mg/kg/injection, schedule: Q01DX009 (ip), vehicle: saline): 113 % of control
T/C (dose: 6.25 mg/kg/injection, schedule: Q01DX009 (ip), vehicle: saline): 101 % of control
T/C [7]: 112 % of control

O/N=C/c1cccc[n+]1Cc1ccccc1
T/C (dose: 1.56 mg/kg/injection, schedule: Q01DX009 (ip), vehicle: water): 102 % of control
T/C (dose: 3.13 mg/kg/injection, schedule: Q01DX009 (ip), vehicle: water): 101 % of control
T/C (dose: 6.25 mg/kg/injection, schedule: Q01DX009 (ip), vehicle: water): 102 % of control
T/C (dose: 12.5 mg/kg/injection, schedule: Q01DX009 (ip), vehicle: water): 102 % of control
T/C (dose: 25.0 mg/kg/injection, schedule: Q01DX009 (ip), vehicle: water): 107 % of control

CCCOc1ccc(-c2nc(-c3ccc(N)cc3)cs2)cc1
T/C [8]: 111 % of control
T/C [9]: 109 % of control
T/C [10]: 109 % of control

C=C1CC2C3CC=C4CC(OC(C)=O)CCC4(C)C3CCC2(C)C1=O (configuration not stated)
T/C [1]: 94 % of control
T/C [2]: 92 % of control
T/C [11]: 104 % of control
T/C (dose: 100.0 mg/kg/injection, schedule: Q01DX009 (ip), vehicle: saline): 110 % of control

NC(=O)SCCC(=O)Nc1ccccc1
T/C [12]: 105 % of control
T/C (dose: 100.0 mg/kg/injection, schedule: Q01DX005 (ip), vehicle: Klucel (hydroxypropylcellulose) (HPC)): 105 % of control
T/C (dose: 200.0 mg/kg/injection, schedule: Q01DX005 (ip), vehicle: Klucel (hydroxypropylcellulose) (HPC)): 109 % of control

CCCCCCCCCCCCCCCCS(=O)(=O)N/N=C(\c1ccc(O)c(OC)c1)N1CCOCC1
T/C [8]: 110 % of control
T/C [9]: 101 % of control
T/C [10]: 96 % of control

O=C(Nc1ccccc1)Nc1ccc(OCc2ccccc2)cc1
T/C [3]: 90 % of control
T/C [4]: 88 % of control
T/C [5]: 114 % of control

CCOc1ccc(C2=C(O)/C(=C(\C(=O)Nc3nccs3)c3ccc(OCC)cc3)OC2=O)cc1
T/C (dose: 12.5 mg/kg/injection, schedule: Q01DX005 (ip), vehicle: Klucel (hydroxypropylcellulose) (HPC)): 109 % of control
T/C (dose: 25.0 mg/kg/injection, schedule: Q01DX005 (ip), vehicle: Klucel (hydroxypropylcellulose) (HPC)): 104 % of control
T/C [12]: 100 % of control and 104 % of control

CCN(c1ccccc1)c1cc(=O)nc2ccccn12
T/C [13]: 107 % of control
T/C [14]: 105 % of control
T/C [15]: 104 % of control

Cc1cc2nc3c(=O)[nH]c(=O)nc-3n(CCOC(=O)CCC(=O)O)c2cc1C
T/C (dose: 100.0 mg/kg/injection, schedule: Q04DX003 (ip), vehicle: saline sonified): 104 % of control
T/C (dose: 200.0 mg/kg/injection, schedule: Q04DX003 (ip), vehicle: saline sonified): 114 % of control

CC(=O)NCCc1nc(-c2nc(C(=O)NCCC(C)C)cs2)cs1
T/C (dose: 12.5 mg/kg/injection, schedule: Q01DX009 (ip), vehicle: distilled water + Tween-80): 92 % of control
T/C (dose: 25.0 mg/kg/injection, schedule: Q01DX009 (ip), vehicle: distilled water + Tween-80): 94 % of control
T/C (dose: 50.0 mg/kg/injection, schedule: Q01DX009 (ip), vehicle: distilled water + Tween-80): 98 % of control
T/C (dose: 100.0 mg/kg/injection, schedule: Q01DX009 (ip), vehicle: distilled water + Tween-80): 102 % of control
T/C (dose: 200.0 mg/kg/injection, schedule: Q01DX009 (ip), vehicle: distilled water + Tween-80): 115 % of control

CCCCCCCCCC(C)CC(=O)NCCCN(C)CCCCN(C)C (configuration not stated) (tested in a mixture with another compound)
T/C (dose: 0.78 mg/kg/injection, schedule: Q01DX009 (ip), vehicle: saline with Tween-80): 91 % of control
T/C (dose: 1.56 mg/kg/injection, schedule: Q01DX009 (ip), vehicle: saline with Tween-80): 94 % of control
T/C (dose: 3.13 mg/kg/injection, schedule: Q01DX009 (ip), vehicle: saline with Tween-80): 97 % of control
T/C [6]: 100 % of control

C=CCSc1nc(N)nc(Nc2ccccc2)n1
T/C (dose: 100.0 mg/kg/injection, schedule: Q01DX001 (ip), vehicle: saline with Tween-80): 98 % of control
T/C (dose: 200.0 mg/kg/injection, schedule: Q01DX001 (ip), vehicle: saline with Tween-80): 92 % of control
T/C (dose: 400.0 mg/kg/injection, schedule: Q01DX001 (ip), vehicle: saline with Tween-80): 87 % of control

CCC(=O)N(C)[C@@H](C)C(=O)O[C@H]1CC(=O)N(C)c2cc(cc(OC)c2Cl)C/C(C)=C/C=C[C@@H](OC)[C@@]2(O)C[C@H](OC(=O)N2)[C@@H](C)[C@@H]2O[C@@]12C
T/C (dose: 0.1 micrograms/kg/injection, schedule: Q01DX009 (ip), vehicle: saline): 105 % of control
T/C (dose: 0.2 micrograms/kg/injection, schedule: Q01DX009 (ip), vehicle: saline): 123 % of control
T/C (dose: 3.1 micrograms/kg/injection, schedule: Q01DX009 (ip), vehicle: saline + alcohol): 160 % of control
T/C (dose: 3.1 micrograms/kg/injection, schedule: Q01DX009 (ip), vehicle: saline): 150 % of control
T/C (dose: 6.3 micrograms/kg/injection, schedule: Q01DX009 (ip), vehicle: saline + alcohol): 151 % of control
T/C (dose: 6.3 micrograms/kg/injection, schedule: Q01DX009 (ip), vehicle: saline): 161 % of control

CCOCC#CC(OCC)OCC
T/C [13]: 101 % of control
T/C [14]: 99 % of control
T/C [15]: 99 % of control

NC(=S)c1cccc(/C=N/O)n1
T/C (dose: 50.0 mg/kg/injection, schedule: Q04DX003 (ip), vehicle: Klucel (hydroxypropylcellulose) (HPC)): 104 % of control
T/C (dose: 100.0 mg/kg/injection, schedule: Q04DX003 (ip), vehicle: Klucel (hydroxypropylcellulose) (HPC)): 99 % of control
T/C (dose: 200.0 mg/kg/injection, schedule: Q04DX003 (ip), vehicle: Klucel (hydroxypropylcellulose) (HPC)): 95 % of control

NC(=O)c1[nH]ccc1NCc1ccccc1
T/C (dose: 50.0 mg/kg/injection, schedule: Q01DX005 (ip), vehicle: saline with Tween-80): 97 % of control
T/C (dose: 100.0 mg/kg/injection, schedule: Q01DX005 (ip), vehicle: saline with Tween-80): 88 % of control
T/C (dose: 200.0 mg/kg/injection, schedule: Q01DX005 (ip), vehicle: saline with Tween-80): 97 % of control

CCc1c(NCCO)c(C(=O)NCCO)c2nc3ccccc3n2c1NCCO
T/C (dose: 60.0 mg/kg/injection, schedule: Q01DX005 (ip), vehicle: saline with Tween-80): 101 % of control
T/C (dose: 120.0 mg/kg/injection, schedule: Q01DX005 (ip), vehicle: saline with Tween-80): 99 % of control
T/C (dose: 240.0 mg/kg/injection, schedule: Q01DX005 (ip), vehicle: saline with Tween-80): 99 % of control

O=S1(=O)C2C=CCCC1C=C2 (configuration not stated)
T/C [7]: 92 % of control
T/C (dose: 25.0 mg/kg/injection, schedule: Q01DX009 (ip), vehicle: saline): 96 % of control
T/C [11]: 100 % of control
T/C (dose: 200.0 mg/kg/injection, schedule: Q01DX009 (ip), vehicle: saline): 100 % of control

CN(C)CCCOc1ccc(NC2=C(Cl)C(=O)C(Nc3ccc(OCCCN(C)C)cc3)=C(Cl)C2=O)cc1
T/C (dose: 6.25 mg/kg/injection, schedule: Q01DX005 (ip), vehicle: suspension in saline): 101 % of control
T/C (dose: 12.5 mg/kg/injection, schedule: Q01DX005 (ip), vehicle: suspension in saline): 101 % of control
T/C (dose: 25.0 mg/kg/injection, schedule: Q01DX005 (ip), vehicle: suspension in saline): 103 % of control

Brc1c(Br)c(Br)c2n[nH]nc2c1Br
T/C [2]: 103 % of control
T/C [3]: 106 % of control
T/C [4]: 103 % of control
T/C [5]: 115 % of control

C[Si](C)(C)OC=C1CCCCC1
T/C (dose: 50.0 mg/kg/injection, schedule: Q01DX009 (ip), vehicle: olive oil, sesame oil, peanut oil): 113 % of control
T/C (dose: 100.0 mg/kg/injection, schedule: Q01DX009 (ip), vehicle: olive oil, sesame oil, peanut oil): 122 % of control
T/C (dose: 200.0 mg/kg/injection, schedule: Q01DX009 (ip), vehicle: olive oil, sesame oil, peanut oil): 108 % of control

c1c(-c2cc(C3CC3)on2)noc1C1CC1
T/C [13]: 100 % of control
T/C [14]: 109 % of control
T/C [15]: 105 % of control

From PubChem BioAssay AID330 (DTP/NCI, 2004)
